Measured values published in patent US7595330B2, “Benzimidazole thiophene compounds” (SmithKline Beecham Corporation, priority 2005, dated 2009).

Assays:
Hela = assay: Cell-Titer-Glo inhibition of cell proliferation, Hela; assay type: cell-based; conditions: Homo sapiens, CellTiter-Glo, 72 h
Description: (§1) V. Cell-Titer-Glo—Inhibition of Cell Proliferation by PLK1 Inhibitors
(§2) Exponentially growing cell lines of different tumor origins, cultured in appropriate media containing 10% fetal bovine serum at 37° C. in a 5% CO2 incubator were plated at low density (less than 2000 cells/well) in 96-well plates. Twenty four hours post-plating, cells were treated with different concentrations of test compounds ranging from 10 uM to 0.04 nM. Several wells were left untreated as a control. Seventy two hours post-treatment, cell numbers were determined using 50-100 ul per well of CellTiter-Glo (Promega #G7573). Plates were incubated at room temperature for 15 minutes and the chemiluminescent signal was read on the Victor V or Envison 2100 reader.
(§3) The Cell-Titer Glo data are shown in Table 2 below and represent a compilation of several different experiments, each performed using the general parameters outlined above, although minor variations may have been employed in some instances.

[1] = system: normal human foreskin fibroblasts (HFF); assay: Methylene blue growth inhibition assay, HFF; assay type: cell-based; conditions: Fibroblast, methylene blue, 72 h, HFF normal fibroblasts, read-out: HFF IC50
Description: (§4) II. Methylene Blue Growth Inhibition Assay—Inhibition of Cell Proliferation by PLK1 Inhibitors
(§5) Generally, exponentially growing cell lines of different tumor origins, cultured in appropriate media containing 10% fetal bovine serum at 37° C. in a 5% CO2 incubator were plated at low density (less than 2000 cells/well) in 96-well plates. […]. Seventy two hours post-treatment, cell numbers were determined using 100 μl per well of methylene blue (Sigma M9140) (0.5% in 50:50 Ethanol:water). Stain was incubated at room temperature for 30 minutes before plates were rinsed and dye solubilized in 1% N-lauroyl sarcosine, sodium salt, (Sigma L5125, in PBS) (further details of a methylene blue assay are described below). Plates were read on a microplate reader, measuring the OD at 620 nm.
(§6) . The data are shown in Table 1 below and represent a compilation of several different experiments, each performed using the general parameters outlined above, although minor variations may have been employed in some instances.
(§7) In one assay, normal human foreskin fibroblasts (HFF), human colon (HCT116, RKO), lung (H460, A549) and breast (MCF7) tumor cell lines were cultured in high glucose DMEM (Life Technologies) containing 10% fetal bovine serum (FBS) at 37° C. in a humidified 5% CO2, 95% air incubator. Cells were harvested using trypsin/EDTA, counted using a haemocytometer, and plated in 100 μL of culture media per well, at the following densities, in a 96-well tissue culture plate (Falcon 3075): HFF 5,000 cells/well, HCT116 3,000 cells/well, RKO 2,500 cells/well, H460 2,500 cells/well, A549 5,000 cells/well, MCF7 4,000 cells/well. The next day, compounds were diluted in low glucose DMEM containing 100 μg/mL gentamicin, at twice the final required concentration, from 10 mM stock solutions in DMSO. 100 μL/well of these dilutions were added to the 100 μL of media currently in the assay plates. Medium containing 0.6% DMSO was added to control wells. The final concentration of DMSO in all wells was 0.3%. Cells were incubated at 37° C., 5% CO2 for 72 h. Medium was removed by aspiration. Cell biomass was estimated by staining cells with 80 μL per well methylene blue (Sigma M9140, 0.5% in 50:50 ethanol:water), and incubation at room temperature for 30-60 min. Stain was removed by aspiration and the plates rinsed by immersion in water, then air-dried. To release stain from the cells, 100 μL of solubilization solution was added (1% N-lauroyl sarcosine, Sodium salt, Sigma L5125, in PBS), and plates were shaken gently for about 30 min. Optical density at 620 nm was measured on a microplate reader. Percent inhibition of cell growth was calculated relative to vehicle treated control wells. […].

BXPC3 = assay: Cell-Titer-Glo inhibition of cell proliferation, BXPC3; assay type: cell-based; conditions: Homo sapiens, BXPC-3, CellTiter-Glo, 72 h
Description: as §1, §2, §3

COLO205 = assay: Cell-Titer-Glo inhibition of cell proliferation, COLO205; assay type: cell-based; conditions: Homo sapiens, COLO 205, CellTiter-Glo, 72 h
Description: as §1, §2, §3

PANC-1 = assay: Cell-Titer-Glo inhibition of cell proliferation, PANC-1; assay type: cell-based; conditions: Homo sapiens, CellTiter-Glo, 72 h
Description: as §1, §2, §3

human plasma proteins = assay: Protein binding to human plasma proteins using equilibrium dialysis; assay type: in vitro ADME; conditions: pH 7.4, equilibrium dialysis 6 h, 37° C.
Description: III. Determination of Protein Binding to Human Plasma Proteins Using Equilibrium Dialysis
96 Well Plate (High Throughput Dialysis): Stock solutions of compounds were spiked into human plasma at a target concentration of 2000 ng/mL. The mixture was inverted gently several times to insure homogeneity and triplicate 50 μL aliquots were collected to verify initial concentrations. Following assembly of dialysis plate (HTDialysis membrane strips, molecular weight cut off limit of 12,000-14,000 daltons), spiked plasma (150 μL) was placed in the donor compartment of the well and Phosphate Buffered Saline pH 7.4 (150 μL) in the receiver compartment. Eight wells were set up per compound and plasma type. Plate was placed in a 37° C. incubator on a plate shaker. Following the 6 h incubation period, the plate was removed. Single 50 μL aliquots from each donor and receiver compartment (per well) were analyzed. Sample analysis was by LC/MS/MS (results reported as Drug Peak Area/Internal Standard Peak Area ratios). Protein binding assay can also be performed using dialysis cells instead of HT Dialysis 96 well plates. In Table 1, % Protein Binding, +=>98%; ++=95-98%: +++=<95%.

A549 = assay: Methylene blue growth inhibition assay, A549; assay type: cell-based; conditions: Homo sapiens; methylene blue, 72 h, A549; read-out: A549 IC50
Description: as §4, §5, §6, §7

MCF7 [2] = assay: Cell-Titer-Glo inhibition of cell proliferation, MCF7; assay type: cell-based; conditions: Homo sapiens, CellTiter-Glo, 72 h
Description: as §1, §2, §3

MCF7 [3] = assay: Methylene blue growth inhibition assay, MCF7; assay type: cell-based; conditions: Homo sapiens; methylene blue, 72 h, MCF7; read-out: MCF7 IC50
Description: as §4, §5, §6, §7

H1299 = assay: Cell-Titer-Glo inhibition of cell proliferation, H1299; assay type: cell-based; conditions: Homo sapiens, NCI-H1299, CellTiter-Glo, 72 h
Description: as §1, §2, §3

P388 = assay: Cell-Titer-Glo inhibition of cell proliferation, P388; assay type: cell-based; conditions: Mus musculus, CellTiter-Glo, 72 h
Description: as §1, §2, §3

SKOV-3 = assay: Cell-Titer-Glo inhibition of cell proliferation, SKOV-3; assay type: cell-based; conditions: Homo sapiens, SK-OV-3, CellTiter-Glo, 72 h
Description: as §1, §2, §3

MX-1 = assay: Cell-Titer-Glo inhibition of cell proliferation, MX-1; assay type: cell-based; conditions: Homo sapiens, MX1, CellTiter-Glo, 72 h
Description: as §1, §2, §3

HCT116 = assay: Cell-Titer-Glo inhibition of cell proliferation, HCT116; assay type: cell-based; conditions: Homo sapiens, HCT-116, CellTiter-Glo, 72 h
Description: as §1, §2, §3

LNCaP = assay: Cell-Titer-Glo inhibition of cell proliferation, LNCaP; assay type: cell-based; conditions: Homo sapiens, CellTiter-Glo, 72 h
Description: as §1, §2, §3

H460 = assay: Methylene blue growth inhibition assay, H460; assay type: cell-based; conditions: Homo sapiens, NCI-H460; methylene blue, 72 h, H460; read-out: H460 IC50
Description: as §4, §5, §6, §7

SMILES: C[C@@H](Oc1cc(-n2cnc3ccc(CN4CCN(C)CC4)cc32)sc1C(N)=O)c1ccccc1C(F)(F)F [Example 3, 5-{6-[(4-Methylpipiperazin-1-yl)methyl]-1H-benzimidazol-1-yl}-3-{(1R)-1-[2-(trifluoromethyl)phenyl]ethoxy}thiophene-2-carboxamide]
- IC50 (Hela): < 500 nM
- IC50 [1]: < 100 nM
- IC50 (BXPC3): < 500 nM
- IC50 (COLO205): < 500 nM
- IC50 (PANC-1): < 500 nM
- fraction unbound at 6 h, 2000 ng/mL (human plasma proteins): > 0.05
- IC50 (A549): < 100 nM
- IC50 (MCF7 [2]): < 500 nM
- IC50 (MCF7 [3]): < 100 nM
- IC50 (H1299): < 500 nM
- IC50 (P388): < 500 nM
- IC50 (SKOV-3): < 500 nM
- IC50 (MX-1): < 500 nM
- IC50 (HCT116): < 500 nM
- IC50 (LNCaP): < 500 nM
- IC50 (H460): < 100 nM
